According to US20220202801A1, “USE OF COMPOUND IN PREPARATION OF DRUG FOR TREATING ATHEROSCLEROSIS” (GenEros Biopharma Ltd., priority 2019, published 2022):
“Also recorded” adds a separate entry of the source.

Columns and labels:
CD68 = experiment: Immunohistochemistry of aortic wall, CD68; format: in vivo, mice; conditions: for aorta (CD68) signal expression in blood vessels: IHC-P×400, single animal micrograph; for CD68 average optical density: aortic wall
Text: (§1) Methods: SPF grade C57BL/6 ApoE −/−model mice were provided by Guangdong Medical Experimental Animal Center, laboratory animal production license No. SOCK (Guangdong) 2013-0002. Laboratory animal quality certificate number: 44007200048196). Mice were half male and half female, aged 8 to 12 weeks, and 72 animals in total. After four weeks of housing in a SPF-level animal facility, animals with less body weights were disposed. A total of 64 animals were randomly divided into 8 groups, 8 in each group, fed with 10% high-fat food, and received with different treatments. Animals were observed and administered with the medicines by gavage once daily. The body weights were measured once a week and continued for 58 days. […] The test sample was dissolved in dimethyl sulfoxide solution and prepared with 30% PEG300.
(§2) After blood collection, the animals were sacrificed, and the aortic arch together with the heart and thoracic aorta were fixed with neutral formaldehyde and subject to pathological examination. The abdominal aorta was collected and quick-frozen in liquid nitrogen, and stored at −80° C.
(§3) c) Immunohistochemistry: The thoracic aorta was sliced and detected by immunohistochemistry for the expression of CD68, intercellular adhesion molecule-1 (ICAM-1), and vascular cell adhesion Molecule-1 (VCAM-1).

ApoE knockout mice [1] = experiment: Blood lipid metabolism TG, TCHO, HDL-c, LDL-c (Example 2); format: in vivo
Text: Methods: A total of 130 SPF grade C57BL/6 ApoE −/− model male mice aged 8 weeks were purchased from Charles River Laboratories (Beijing, China) (animal license number: SCXK (Beijing) 2016-0001, animal qualification certificate No.: 11400700331337). After one week of acclimatization in a SPF-grade animal facility, the animals with less weights were discarded and the rest was randomly divided into 11 groups, with 8 animals in each group. Except for the healthy control group, the rest were fed with 10% high-fat food (the first day of the high-fat diet was recorded as D1). Starting from the 8th week of the high-fat diet, each group of animals was orally given solvents or corresponding drugs, and the volume of administration was 10 ml/kg, once a day for 8 weeks. Animals were observed and administered by gavage once a day and the body weight were measured once a week for 56 days. […] The store solution of the test samples was dissolved in dimethyl sulfoxide solution and prepared with 30% PEG300.
At the end of the experiment, the animals were euthanized by inhalation of carbon dioxide. Blood was taken from the heart, and centrifuged at 3000 r/min at a low temperature centrifuge for 10 min to separate the serum. The levels of total cholesterol TC, triglyceride TG, high-density lipoprotein HDL-C, and low-density lipoprotein LDL-C were measured, and the remaining serum was stored in a refrigerator at −80° C.
Before the start of the experiment, animal blood samples were analyzed for blood lipid metabolism, including conventional triglyceride (TG), total cholesterol (TCHO), high-density lipoprotein (HDL-c) and low-density lipoprotein (LDL-c). After high-fat or ordinary food feeding for 8 weeks, the blood lipid levels were measured again. After the drug treatment was started, blood lipid measurements were performed every four weeks until the end of the experiment.

ICAM-1 = experiment: Immunohistochemistry of aortic wall, ICAM-1; format: in vivo, mice; conditions: for aorta (ICAM-1) signal expression in blood vessels: IHC-P×400, single animal micrograph; for ICAM-1 average optical density: aortic wall
Text: as §1, §2, §3

ApoE knockout mice [2] = experiment: Four blood lipids in serum of ApoE knockout mice (Example 1); format: in vivo; conditions: for HDL-C / LDL-C / TC / TG: serum
Text: as §1
At the end of the experiment, animals were anesthetized with pentobarbital sodium. Blood was collected from the orbital venous plexus, and centrifuged at 3000 r/min at a low temperature for 10 min to separate the serum. The levels of total cholesterol TC, triglyceride TG, high-density lipoprotein HDL-C, and low-density lipoprotein LDL-C were measured, and the remaining serum was stored in a refrigerator at −80° C.
Statistical analysis: Data were expressed as the mean plus or minus the standard deviation (x± s), and analyzed by SPSS21.0 statistical software. […] The level of test is α=0.05.

VCAM-1 = experiment: Immunohistochemistry of aortic wall, VCAM-1; format: in vivo, mice; conditions: for aorta (VCAM-1) signal expression in blood vessels: IHC-P×400, single animal micrograph; for VCAM-1 average optical density: aortic wall
Text: as §1, §2, §3

[3] = 2 mg/kg gavage QD, listed as Nib2, 2 mg/kg
[4] = half male and female, 1 mg/kg body weight
[5] = half male and female, 2 mg/kg body weight
[6] = half male and female, 5 mg/kg body weight
[7] = ♂, 5 mg/kg gavage QD, 58 days, 5 mg/kg
[8] = ♂, 5 mg/kg gavage QD, 58 days, listed as sample B, 5 mg/kg

## O=C(N/N=C/c1coc2ccccc2c1=O)c1cccnc1 [Sample B]
CD68; 1 mg/kg
  aorta (CD68) signal expression in blood vessels: low to medium
CD68; 2 mg/kg
  aorta (CD68) signal expression in blood vessels: low to medium
CD68; 5 mg/kg
  aorta (CD68) signal expression in blood vessels: low to medium
CD68; 1 mg/kg gavage QD
  CD68 average optical density: 1.85 ± 1.51 ×10^−2
CD68; 2 mg/kg gavage QD
  CD68 average optical density: 2.22 ± 0.99 ×10^−2
CD68; 5 mg/kg gavage QD
  CD68 average optical density: 2.83 ± 1.40 ×10^−2
ApoE knockout mice [1]
  effect on high-density lipoprotein (HDL-c) level compared with the vehicle group: no obvious effect
  effect on low-density lipoprotein (LDL-c) level compared with the vehicle group: significantly reduce
  effect on total cholesterol (TCHO) level compared with the vehicle group: significantly reduce
  effect on triglyceride (TG) level compared with the vehicle group: significantly reduce
ICAM-1; 1 mg/kg
  aorta (ICAM-1) signal expression in blood vessels: low to medium
ICAM-1; 2 mg/kg
  aorta (ICAM-1) signal expression in blood vessels: low to medium
ICAM-1; 5 mg/kg
  aorta (ICAM-1) signal expression in blood vessels: low to medium
ICAM-1; 1 mg/kg gavage QD
  ICAM-1 average optical density: 2.44 ± 1.19 ×10^−2
ICAM-1; 2 mg/kg gavage QD, 2 mg/kg
  ICAM-1 average optical density: 1.31 ± 1.40 ×10^−2
ICAM-1; [3]
  ICAM-1 average optical density: reduced expression
ICAM-1; 2 mg/kg gavage QD, listed as sample B, 2 mg/kg
  ICAM-1 average optical density: lower than the model control group
ICAM-1; 5 mg/kg gavage QD
  ICAM-1 average optical density: 3.98 ± 1.64 ×10^−2
ApoE knockout mice [2]; Example 1, overall
  regulation on blood lipid levels (overall): have the effect of improving blood lipids
ApoE knockout mice [2]; [4]
  HDL-C: 1.75 ± 0.69 mmol/L
  LDL-C: 6.19 ± 2.64 mmol/L
  TC: 19.56 ± 5.66 mmol/L
  TG: 0.91 ± 0.69 mmol/L
ApoE knockout mice [2]; [5]
  HDL-C: 1.68 ± 0.39 mmol/L
  LDL-C: 5.71 ± 1.80 mmol/L
  TC: 19.01 ± 4.64 mmol/L
  TG: 0.81 ± 0.30 mmol/L
ApoE knockout mice [2]; [6]
  HDL-C: 1.71 ± 0.45 mmol/L
  LDL-C: 5.96 ± 2.17 mmol/L
  TC: 19.76 ± 5.49 mmol/L
ApoE knockout mice [2]; half male and female, 5 mg/kg body weight, 5 mg/kg
  TG: 0.74 ± 0.35 mmol/L
ApoE knockout mice [2]; half male and female, 5 mg/kg body weight, listed as sample B, 5 mg/kg
  TG: lower; also recorded: decreased
ApoE knockout mice [2]; ♀, 1 mg/kg gavage QD, 58 days
  LDL-C: 4.32 ± 0.59 mmol/L
  TC: 15.50 ± 2.01 mmol/L
  TG: 0.57 ± 0.08 mmol/L
ApoE knockout mice [2]; ♀, 1 mg/kg gavage QD, 58 days, 1 mg/kg
  HDL-C: 1.32 ± 0.18 mmol/L
ApoE knockout mice [2]; ♀, 1 mg/kg gavage QD, 58 days, listed as sample B, 1 mg/kg
  HDL-C: lower
ApoE knockout mice [2]; ♀, 2 mg/kg gavage QD, 58 days
  LDL-C: 4.40 ± 0.96 mmol/L
  TC: 15.49 ± 2.98 mmol/L
  TG: 0.58 ± 0.10 mmol/L
ApoE knockout mice [2]; ♀, 2 mg/kg gavage QD, 58 days, 2 mg/kg
  HDL-C: 1.36 ± 0.16 mmol/L
ApoE knockout mice [2]; ♀, 2 mg/kg gavage QD, 58 days, listed as sample B, 2 mg/kg
  HDL-C: lower
ApoE knockout mice [2]; ♀, 5 mg/kg gavage QD, 58 days
  LDL-C: 4.61 ± 0.56 mmol/L
  TC: 16.21 ± 1.98 mmol/L
  TG: 0.65 ± 0.24 mmol/L
ApoE knockout mice [2]; ♀, 5 mg/kg gavage QD, 58 days, 5 mg/kg
  HDL-C: 1.38 ± 0.08 mmol/L
ApoE knockout mice [2]; ♀, 5 mg/kg gavage QD, 58 days, listed as sample B, 5 mg/kg
  HDL-C: lower
ApoE knockout mice [2]; ♂, 1 mg/kg gavage QD, 58 days
  HDL-C: 2.18 ± 0.75 mmol/L
  LDL-C: 8.07 ± 2.56 mmol/L
  TC: 23.63 ± 5.16 mmol/L
  TG: 1.26 ± 0.89 mmol/L
ApoE knockout mice [2]; ♂, 2 mg/kg gavage QD, 58 days
  LDL-C: 7.03 ± 1.41 mmol/L
  TC: 22.54 ± 2.88 mmol/L
  TG: 1.05 ± 0.25 mmol/L
ApoE knockout mice [2]; ♂, 2 mg/kg gavage QD, 58 days, 2 mg/kg
  HDL-C: 2.00 ± 0.23 mmol/L
ApoE knockout mice [2]; ♂, 2 mg/kg gavage QD, 58 days, listed as sample B, 2 mg/kg
  HDL-C: lower
ApoE knockout mice [2]; ♂, 5 mg/kg gavage QD, 58 days
  LDL-C: 7.31 ± 2.41 mmol/L
  TC: 23.32 ± 5.72 mmol/L
ApoE knockout mice [2]; [7]
  HDL-C: 2.04 ± 0.42 mmol/L
  TG: 0.83 ± 0.46 mmol/L
ApoE knockout mice [2]; [8]
  HDL-C: lower
  TG: lower
VCAM-1; 1 mg/kg
  aorta (VCAM-1) signal expression in blood vessels: low to medium
VCAM-1; 2 mg/kg
  aorta (VCAM-1) signal expression in blood vessels: low to medium
VCAM-1; 5 mg/kg
  aorta (VCAM-1) signal expression in blood vessels: low to medium
VCAM-1; 1 mg/kg gavage QD
  VCAM-1 average optical density: 1.24 ± 0.99 ×10^−2
VCAM-1; 2 mg/kg gavage QD, 2 mg/kg
  VCAM-1 average optical density: 1.54 ± 1.11 ×10^−2
VCAM-1; [3]
  VCAM-1 average optical density: reduced expression
VCAM-1; 5 mg/kg gavage QD
  VCAM-1 average optical density: 1.69 ± 0.85 ×10^−2
